Data as given in ChEMBL document CHEMBL1201862, “PubChem BioAssay data set” (2004).
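Briefly, cells in 96-well plates were exposed to five compound concentrations for 48 h, and endpoints were estimated by linear interpolation. Abbreviation: GI50, concentration required for 50% inhibition of growth.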 Activity calls are given as the source filed them. No stated cut-off is given here; in the data, active = GI50 up to about 1.1 µM and inactive = higher.

Tests used:
Assay in all cases: inhibition of tumour cell growth, NCI panel, 48 h
[1] = tested on: HL-60
[2] = tested on: IGROV-1
[3] = tested on: SN12C
[4] = tested on: TK-10
[5] = tested on: SF-268
[6] = tested on: NCI/ADR-RES
[7] = tested on: 786-0
[8] = tested on: SNB-19
[9] = tested on: UO-31
[10] = tested on: SR
[11] = tested on: Malme-3M
[12] = tested on: T47D
[13] = tested on: SK-OV-3
[14] = tested on: DU-145
[15] = tested on: UACC-62
[16] = tested on: U-251
[17] = tested on: OVCAR-5
[18] = tested on: HOP-62
[19] = tested on: SNB-75
[20] = tested on: M14
[21] = tested on: OVCAR-3
[22] = tested on: A498
[23] = tested on: CAKI-1
[24] = tested on: KM12
[25] = tested on: SK-MEL-2
[26] = tested on: OVCAR-4
[27] = tested on: RPMI-8226
[28] = tested on: HOP-92
[29] = tested on: MDA-MB-435
[30] = tested on: MOLT-4
[31] = tested on: SW-620
[32] = tested on: MCF7
[33] = tested on: NCI-H522
[34] = tested on: ACHN
[35] = tested on: CCRF-CEM
[36] = tested on: Hs-578T
[37] = tested on: UACC-257
[38] = tested on: SK-MEL-28
[39] = tested on: EKVX
[40] = tested on: HT-29
[41] = tested on: MDA-MB-231
[42] = tested on: HCT-116
[43] = tested on: NCI-H226
[44] = tested on: NCI-H23
[45] = tested on: MDA-N
[46] = tested on: PC-3
[47] = tested on: SF-539
[48] = tested on: NCI-H460
[49] = tested on: OVCAR-8
[50] = tested on: K562
[51] = tested on: HCC 2998
[52] = tested on: HCT-15
[53] = tested on: SF-295
[54] = tested on: COLO 205
[55] = tested on: LOX IMVI
[56] = tested on: A549
[57] = tested on: SK-MEL-5
[58] = tested on: RXF 393
[59] = tested on: BT-549

## O=C(Nc1ccccc1)O/N=C(/CBr)c1ccccc1
[1]
  GI50: 4.66 µM (inactive)
[2]
  GI50: 14.6 µM (inactive)
[3]
  GI50: 8.22 µM (inactive)
[4]
  GI50: 18.1 µM (inactive)
[5]
  GI50: 14.3 µM (inactive)
[6]
  GI50: 17.9 µM (inactive)
[7]
  GI50: 7.71 µM (inactive)
[8]
  GI50: 20.6 µM (inactive)
[9]
  GI50: 16.1 µM (inactive)
[10]
  GI50: 3.94 µM (inactive)
[11]
  GI50: 13 µM (inactive)
[12]
  GI50: 11.5 µM (inactive)
[13]
  GI50: 29.2 µM (inactive)
[14]
  GI50: 19.3 µM (inactive)
[15]
  GI50: 12.3 µM (inactive)
[16]
  GI50: 14.5 µM (inactive)
[17]
  GI50: 18.1 µM (inactive)
[18]
  GI50: 24.3 µM (inactive)
[19]
  GI50: 15.2 µM (inactive)
[20]
  GI50: 6.79 µM (inactive)
[21]
  GI50: 17.7 µM (inactive)
[22]
  GI50: 24 µM (inactive)
[23]
  GI50: 14.8 µM (inactive)
[24]
  GI50: 17.9 µM (inactive)
[25]
  GI50: 13.9 µM (inactive)
[26]
  GI50: 15.1 µM (inactive)
[27]
  GI50: 16.3 µM (inactive)
[28]
  GI50: 16.1 µM (inactive)
[29]
  GI50: 4.84 µM (inactive)
[30]
  GI50: 3.18 µM (inactive)
[31]
  GI50: 5.35 µM (inactive)
[32]
  GI50: 16.7 µM (inactive)
[33]
  GI50: 8.85 µM (inactive)
[34]
  GI50: 17.1 µM (inactive)
[35]
  GI50: 3.52 µM (inactive)
[36]
  GI50: 26.2 µM (inactive)
[37]
  GI50: 17.8 µM (inactive)
[38]
  GI50: 19.5 µM (inactive)
[39]
  GI50: 17.1 µM (inactive)
[40]
  GI50: 6.87 µM (inactive)
[41]
  GI50: 12.2 µM (inactive)
[42]
  GI50: 4.3 µM (inactive)
[43]
  GI50: 24 µM (inactive)
[44]
  GI50: 7.35 µM (inactive)
[45]
  GI50: 6.87 µM (inactive)
[46]
  GI50: 12.6 µM (inactive)
[47]
  GI50: 7.11 µM (inactive)
[48]
  GI50: 19 µM (inactive)
[49]
  GI50: 14.6 µM (inactive)
[50]
  GI50: 4.12 µM (inactive)
[51]
  GI50: 18.5 µM (inactive)
[52]
  GI50: 4.04 µM
[53]
  GI50: 26 µM (inactive)
[54]
  GI50: 15.7 µM (inactive)
[55]
  GI50: 3.15 µM (inactive)
[56]
  GI50: 34 µM (inactive)
[57]
  GI50: 11.9 µM (inactive)
[58]
  GI50: 31.9 µM (inactive)

## Cc1ccccc1/N=N/c1ccc(/N=N/c2c(O)ccc3ccccc23)c(C)c1 [SCARLET RED]
[2]
  GI50: > 100 µM (inactive)
[3]
  GI50: > 100 µM (inactive)
[4]
  GI50: > 100 µM (inactive)
[5]
  GI50: 70.3 µM (inactive)
[6]
  GI50: > 100 µM (inactive)
[7]
  GI50: > 100 µM (inactive)
[8]
  GI50: 81.7 µM (inactive)
[9]
  GI50: > 100 µM (inactive)
[11]
  GI50: > 100 µM (inactive)
[12]
  GI50: > 100 µM (inactive)
[13]
  GI50: > 100 µM (inactive)
[59]
  GI50: > 100 µM (inactive)
[14]
  GI50: > 100 µM (inactive)
[15]
  GI50: > 100 µM (inactive)
[16]
  GI50: > 100 µM (inactive)
[17]
  GI50: > 100 µM (inactive)
[18]
  GI50: 38 µM (inactive)
[19]
  GI50: 72.1 µM (inactive)
[20]
  GI50: > 100 µM (inactive)
[21]
  GI50: > 100 µM (inactive)
[22]
  GI50: > 100 µM (inactive)
[23]
  GI50: > 100 µM (inactive)
[24]
  GI50: > 100 µM (inactive)
[25]
  GI50: > 100 µM (inactive)
[26]
  GI50: > 100 µM (inactive)
[27]
  GI50: > 100 µM (inactive)
[28]
  GI50: > 100 µM (inactive)
[29]
  GI50: > 100 µM (inactive)
[30]
  GI50: > 100 µM (inactive)
[31]
  GI50: > 100 µM (inactive)
[33]
  GI50: > 100 µM (inactive)
[34]
  GI50: > 100 µM (inactive)
[35]
  GI50: > 10 µM (inactive)
[36]
  GI50: 44.2 µM (inactive)
[37]
  GI50: > 100 µM (inactive)
[38]
  GI50: > 100 µM (inactive)
[39]
  GI50: > 100 µM (inactive)
[40]
  GI50: > 100 µM (inactive)
[41]
  GI50: > 100 µM (inactive)
[42]
  GI50: > 100 µM (inactive)
[43]
  GI50: > 100 µM (inactive)
[44]
  GI50: > 100 µM (inactive)
[46]
  GI50: > 100 µM (inactive)
[49]
  GI50: > 100 µM (inactive)
[50]
  GI50: > 100 µM (inactive)
[52]
  GI50: > 100 µM
[53]
  GI50: 56.8 µM (inactive)
[54]
  GI50: > 100 µM (inactive)
[55]
  GI50: > 100 µM (inactive)
[56]
  GI50: > 100 µM (inactive)
[57]
  GI50: > 100 µM (inactive)
[58]
  GI50: > 100 µM (inactive)

## COc1cc2cc(C(=O)N3CC(CCl)c4ccc([N+](=O)[O-])cc43)[nH]c2c(OC)c1OC (centres undefined)
[1]
  GI50: > 100 µM (inactive)
[2]
  GI50: > 100 µM (inactive)
[3]
  GI50: > 100 µM (inactive)
[4]
  GI50: > 100 µM (inactive)
[5]
  GI50: > 100 µM (inactive)
[6]
  GI50: > 100 µM (inactive)
[7]
  GI50: > 100 µM (inactive)
[8]
  GI50: > 100 µM (inactive)
[9]
  GI50: > 100 µM (inactive)
[11]
  GI50: > 100 µM (inactive)
[12]
  GI50: > 100 µM (inactive)
[59]
  GI50: > 100 µM (inactive)
[14]
  GI50: > 100 µM (inactive)
[15]
  GI50: > 100 µM (inactive)
[16]
  GI50: > 100 µM (inactive)
[17]
  GI50: > 100 µM (inactive)
[18]
  GI50: > 100 µM (inactive)
[19]
  GI50: > 100 µM (inactive)
[20]
  GI50: > 100 µM (inactive)
[21]
  GI50: > 100 µM (inactive)
[22]
  GI50: > 100 µM (inactive)
[23]
  GI50: > 100 µM (inactive)
[24]
  GI50: > 100 µM (inactive)
[25]
  GI50: > 100 µM (inactive)
[26]
  GI50: 29.2 µM (inactive)
[27]
  GI50: > 100 µM (inactive)
[28]
  GI50: > 100 µM (inactive)
[29]
  GI50: > 100 µM (inactive)
[30]
  GI50: > 100 µM (inactive)
[31]
  GI50: > 100 µM (inactive)
[32]
  GI50: > 100 µM (inactive)
[33]
  GI50: > 100 µM (inactive)
[34]
  GI50: > 100 µM (inactive)
[35]
  GI50: > 100 µM (inactive)
[36]
  GI50: 74.5 µM (inactive)
[37]
  GI50: > 100 µM (inactive)
[38]
  GI50: > 100 µM (inactive)
[39]
  GI50: 30.8 µM (inactive)
[40]
  GI50: 17.4 µM (inactive)
[41]
  GI50: > 100 µM (inactive)
[42]
  GI50: > 100 µM (inactive)
[44]
  GI50: > 100 µM (inactive)
[46]
  GI50: > 100 µM (inactive)
[47]
  GI50: > 100 µM (inactive)
[49]
  GI50: > 100 µM (inactive)
[50]
  GI50: > 100 µM (inactive)
[51]
  GI50: > 100 µM (inactive)
[52]
  GI50: > 100 µM
[53]
  GI50: > 100 µM (inactive)
[54]
  GI50: > 100 µM (inactive)
[55]
  GI50: > 100 µM (inactive)
[56]
  GI50: > 100 µM (inactive)
[57]
  GI50: > 100 µM (inactive)
[58]
  GI50: > 100 µM (inactive)
